# According to patent US8211909B2, “Treatment of antibiotic-resistant bacteria infection” (TaiGen Biotechnology Co., Ltd., priority 2008, dated 2012):
# Like-named read-outs stand apart in the source and are kept apart here.
# Tests used:
# [1] = system: Methicillin-resistant Staphylococcus aureus (MRSA) isolates; assay: MIC by broth microdilution (CLSI) against CAN-ICU MRSA isolates; assay type: cell-based; conditions: Staphylococcus aureus
# Excerpt: MRSA isolates (n=193) were obtained as part of the Canadian National Intensive Care Unit (CAN-ICU) Study. 19 medical centers from all regions of Canada with active ICUs participated in the CAN-ICU study included. They were requested to only obtain “clinically significant” specimens from patients with a presumed infectious disease. Surveillance swabs, eye, ear, nose and throat swabs were excluded. Anaerobic organisms and fungal organisms were also excluded.
# From September 2005-June 2006 (inclusive), each center collected a maximum of 300 consecutive pathogens isolated from blood, urine, tissue/wound, and respiratory specimens (one pathogen per cultured site per patient) of ICU patients. These isolates were shipped to the reference laboratory (Health Sciences Centre, Winnipeg, Canada) on Amies charcoal swabs, subcultured in appropriate media, and stocked in skim milk at −80° C.
# All isolates underwent mecA PCR, as well as molecular characterization (including PVL analysis and fingerprinting), as previously described, to assess whether they were community-associated or healthcare-associated (Christianson et al., J Clin Microbiol. 2007, 45 (6): 1904-11; Mulvey et al., J Clin. Microbiol. 2001, 39(10): 3481-5; Mulvey et al., Emerg Infect Dis. 2005,11(6): 844-50; Oliveira et al., Antimicrob Agents Chemother. 2002, 46(7): 2155-61). The isolates were also subtyped using pulsed-field gel electrophoresis (PFGE) following the Canadian standardized protocol as previously described (Mulvey et al., J Clin Microbiol. 2001, 39(10): 3481-5). Their PFGE fingerprints thus obtained were analyzed with BioNumerics v3.5 (Applied Maths St. Marten-Latem, Belgium) using a position tolerance of 1.0 and an optimization of 1.0. Strain relatedness was determined as previously described (Tenover et al., 1995). The fingerprints of the isolates were compared to the national MRSA fingerprint database and were grouped into one of 10 Canadian epidemic MRSA (CMRSA-1, CMRSA-2, etc) as previously described (Mulvey et al., Emerg Infect Dis. 2005,11(6):844-50).
# Compound 1 and other antibiotics were tested for their inhibitory activity against the MRSA isolates using the broth microdilution guidelines as stipulated by the Clinical and Laboratory Standards Institute.
# [2] = system: Staphylococcus aureus strains (MRSA, hVISA, VISA, VRSA, quinolone-resistant MRSA); assay: MIC by agar dilution against Staphylococcal strains (MRSA, hVISA, VISA, VRSA, quinolone-resistant MRSA); assay type: cell-based
# Method: Compound 1 was tested for its inhibitory effect against 26 Methicillin-resistant Staphylococcus aureus (MRSA) strains, 2 hetero-Vancomycin intermediate Staphylococcus aureus (hVISA) strains, 24 Vancomycin-intermediate Staphylococcus aureus (VISA) strains, 5 Vancomycin-resistant Staphylococcus aureus (VRSA) strains, and 31 quinolone-resistant Vancomycin-susceptibale MRSA strains with defined mutations in QRDR. These mutations were determined by sequencing analysis of the QRDR (gyrA, gyrB, grlA, and grlB). Efflux testing was performed by the reserpine method (Brenwald, et al., Antimicrob. Agents Chemother. 1998, 42: 2032-2035).
# [3] = MRSA (n = 193), read-out: MIC50
# [4] = MRSA (n = 193), read-out: MIC90
# [5] = MRSA (n = 193), read-out: MIC Range Max
# [6] = MRSA (n = 193), read-out: MIC Range Min
# [7] = Staphylococcus aureus, MRSA (26)
# [8] = Staphylococcus aureus, Quinolone-resistant MRSA (31)
# [9] = Staphylococcus aureus, hVISA(2) + VISA (24) + VRSA (5)
# [10] = Staphylococcus aureus, read-out: MIC Range, MRSA (26)
# [11] = Staphylococcus aureus, read-out: MIC Range, Quinolone-resistant MRSA (31)
# [12] = Staphylococcus aureus, read-out: MIC Range, hVISA(2) + VISA (24) + VRSA (5)
# [13] = hVISA(2) + VISA (24) + VRSA (5)
Molecule,"MIC50 [1, 3]","MIC90 [1, 4]","MIC [1, 5]","MIC [1, 6]","MIC50 [2, 7]","MIC90 [2, 7]","MIC50 [2, 8]","MIC90 [2, 8]","MIC50 [2, 9]","MIC90 [2, 9]","MIC [2, 10]","MIC [2, 11]","MIC [2, 12]",also measured
Cc1nnc(SCC2=C(C(=O)O)N3C(=O)[C@@H](NC(=O)Cn4cnnn4)[C@H]3SC2)s1 [Cefazolin],128 µg/mL,> 128 µg/mL,> 128 µg/mL,2 µg/mL,–,–,–,–,–,–,–,–,–,–
CO/N=C(\C(=O)N[C@@H]1C(=O)N2C(C(=O)O)=C(CSc3nc(=O)c(=O)[nH]n3C)CS[C@H]12)c1csc(N)n1 [Ceftriaxone],> 64 µg/mL,> 64 µg/mL,> 64 µg/mL,8 µg/mL,–,–,–,–,–,–,–,–,–,–
CCC[C@@H]1C[C@@H](C(=O)N[C@@H]([C@H]2O[C@H](SC)[C@H](O)[C@@H](O)[C@H]2O)[C@H](C)Cl)N(C)C1 [Clindamycin],> 8 µg/mL,> 8 µg/mL,> 8 µg/mL,≤ 0.12 µg/mL,–,–,–,–,–,–,–,–,–,–
CCCCCCCCCC(=O)N[C@@H](Cc1c[nH]c2ccccc12)C(=O)N[C@H](CC(N)=O)C(=O)N[C@@H](CC(=O)O)C(=O)N[C@@H]1C(=O)NCC(=O)N[C@@H](CCCN)C(=O)N[C@@H](CC(=O)O)C(=O)N[C@H](C)C(=O)N[C@@H](CC(=O)O)C(=O)NCC(=O)N[C@H](CO)C(=O)N[C@@H]([C@H](C)CC(=O)O)C(=O)N[C@@H](CC(=O)c2ccccc2N)C(=O)O[C@@H]1C [Daptomycin],0.25 µg/mL,0.5 µg/mL,0.5 µg/mL,0.25 µg/mL,1 µg/mL,1 µg/mL,0.25 µg/mL,0.25 µg/mL,1 µg/mL,2 µg/mL,0.5 to 1 µg/mL,0.12 to 1 µg/mL,0.12 to 4 µg/mL,–
CC(=O)NC[C@H]1CN(c2ccc(N3CCOCC3)c(F)c2)C(=O)O1 [Linezolid],2 µg/mL,2 µg/mL,4 µg/mL,0.5 µg/mL,4 µg/mL,4 µg/mL,1 µg/mL,1 µg/mL,1 µg/mL,1 µg/mL,2 to 4 µg/mL,0.25 to 1 µg/mL,0.5 to 2 µg/mL,"MIC50 ([1]; MRSA / USA100, USA 100/800 (HA-MRSA), read-out: MIC50): 2 µg/mL; MIC90 ([1]; MRSA / USA100, USA 100/800 (HA-MRSA), read-out: MIC90): 2 µg/mL; MIC50 ([1]; MRSA / USA200, USA 200 (HA-MRSA), read-out: MIC50): 2 µg/mL; MIC90 ([1]; MRSA / USA200, USA 200 (HA-MRSA), read-out: MIC90): 2 µg/mL; MIC50 ([1]; MRSA / USA300, USA 300 (CA-MRSA), read-out: MIC50): 1 µg/mL; MIC90 ([1]; MRSA / USA300, USA 300 (CA-MRSA), read-out: MIC90): 2 µg/mL; MIC50 ([1]; MRSA / USA400, USA 400 (CA-MRSA), read-out: MIC50): 2 µg/mL; MIC90 ([1]; MRSA / USA400, USA 400 (CA-MRSA), read-out: MIC90): 2 µg/mL; MIC50 ([1]; MRSA / USA600, USA 600 (HA-MRSA), read-out: MIC50): 2 µg/mL; MIC90 ([1]; MRSA / USA600, USA 600 (HA-MRSA), read-out: MIC90): 2 µg/mL"
C[C@@H](O)[C@H]1C(=O)N2C(C(=O)O)=C(S[C@@H]3CN[C@H](C(=O)N(C)C)C3)[C@H](C)[C@H]12 [Meropenem],16 µg/mL,> 32 µg/mL,> 32 µg/mL,0.25 µg/mL,–,–,–,–,–,–,–,–,–,–
CN(C)c1cc(NC(=O)CNC(C)(C)C)c(O)c2c1C[C@H]1C[C@H]3[C@H](N(C)C)C(O)=C(C(N)=O)C(=O)[C@@]3(O)C(O)=C1C2=O [Tigecycline],–,–,–,–,0.25 µg/mL,0.5 µg/mL,0.12 µg/mL,0.25 µg/mL,0.25 µg/mL,0.5 µg/mL,0.12 to 0.5 µg/mL,0.12 to 0.5 µg/mL,0.06 to 0.5 µg/mL,"MIC50 ([1]; MRSA): 0.25 µg/mL; MIC90 ([1]; MRSA): 0.5 µg/mL; MIC50 ([1]; MRSA / USA100): 0.25 µg/mL; MIC90 ([1]; MRSA / USA100): 0.25 µg/mL; MIC50 ([1]; MRSA / USA200): 0.5 µg/mL; MIC90 ([1]; MRSA / USA200): 0.5 µg/mL; MIC50 ([1]; MRSA / USA300): 0.25 µg/mL; MIC90 ([1]; MRSA / USA300): 0.5 µg/mL; MIC50 ([1]; MRSA / USA400): 0.25 µg/mL; MIC90 ([1]; MRSA / USA400): 0.25 µg/mL; MIC50 ([1]; MRSA / USA600): 0.25 µg/mL; MIC90 ([1]; MRSA / USA600): 0.5 µg/mL; MIC ([1]; MRSA, read-out: MIC Range Max): 0.5 µg/mL; MIC ([1]; MRSA, read-out: MIC Range Min): 0.12 µg/mL"
Teicoplanin,–,–,–,–,–,–,–,–,–,–,–,–,–,"MIC50 ([2]; MRSA (26)): 0.5 µg/mL; MIC90 ([2]; MRSA (26)): 1 µg/mL; MIC Range ([2]; MRSA (26)): 0.5 to 1 µg/mL; MIC50 ([2]; Quinolone-resistant MRSA (31)): 0.5 µg/mL; MIC90 ([2]; Quinolone-resistant MRSA (31)): 1 µg/mL; MIC Range ([2]; Quinolone-resistant MRSA (31)): 0.25 to 2 µg/mL; MIC50 [2, 13]: 8 µg/mL; MIC90 [2, 13]: 16 µg/mL; MIC Range [2, 13]: 1 to 32 µg/mL"
